Key:
L3.6pl cells = experiment: Attached cell count (hemocytometer) after 72 h; type: cell-based, human
Procedure: In parallel with the above experiments, a dose dependence experiment was performed looking at how compound 10 at 0, 2, 5 and 7 μM affected L3.6pl cell attachment and cell number after 72 h incubation at 37° C. Successively more detached cells were observed as the concentration of compound 10 increased, particularly from 5 μM to 7 μM.
Cells were incubated with compound 10 for 72 h at 37° C. A 250 μM AG solution was incubated with the cells for 24 h prior to compound addition. Each condition was performed in duplicate.
This example illustrates aspects according to various embodiments pertaining to a 72 h experiment with Compound 10 in L3.6pl cells. Ten milliliters of a cell suspension containing L3.6pl human pancreatic cancer cells (50,000 cells/mL) and aminoguanidine ([…]) were placed in treated plastic Petri dishes (d=9 cm) and incubated overnight at 37° C. After 24 h, the cells were dosed with compound 10 at 2 μM, 5 μM, or 7 μM. (Note: Stock solutions of 10 at 2, 5, and 7 mM were dissolved in phosphate buffered saline (PBS) and were filtered through a 0.2 μm filter prior to use. The experiments were maintained with a total volume of 10.01 mL where 10 mL of the cell suspension was placed in a plastic dish and each compound or the equivalent PBS volume was added to make up the total volume 10.01 mL for each dish. For example, for the control experiment PBS (10 μL) was added to make up the total volume (10 mL+10 μL=10.01 mL). After 72 h incubation, the cells were collected first by pipetting off the supernatant containing floating dead cells from the culture dish as well as media and placing them into 15 mL tubes. The supernatant containing floating cells was centrifuged (4 min at 1,000 rpm). The cell-free supernatant (supernatant #1) was collected into a new 15 mL tube and quantified (˜8.6 mL) and was then stored frozen and was later quantified by LCMS to investigate the media composition of particular polyamine and amino acid analytes. The attached cells on the dish were washed with PBS (5 mL). The PBS wash was removed by suction and additional PBS (2 mL) was added and again suctioned off to provide twice-washed cells still adhered to the dish. Trypsin (2 mL) was then added to each dish and incubated (3-5 min) until all the cells were detached. Fresh media (8 mL) was added to quench the trypsin. The cell solutions were pipetted into separate 15 mL tubes and centrifuged (4 min at 1,000 rpm). The resulting supernatant was removed to provide a pellet. The pellet was suspended in PBS (10 mL) and was counted by a hemocytometer to provide cell counts for each experimental condition. The pellet was then centrifuged (4 min at 1,000 rpm) and the supernatant removed and the remaining pellet was quantified via protein and polyamine analysis.

LAT-1 = target: T1, LAT-1 (Homo sapiens, UniProt Q01650); experiment: 3H-Leucine efflux assay; type: cell-based; details: L3.6pl
T1 construct: endogenous in cells; host or cells: L3.6pl human pancreatic cancer cells
Text: JPH203 is not toxic to L3.6pl cells over this concentration range and time interval. FIG. 10E is an example according to various embodiments, illustrating results obtained for a Leu uptake inhibition experiment with compound 10. Note: the y-axis in FIG. 10E is in CPM per ug of protein to normalize the data and account for any potential losses of cells due to toxicity of compound 10. FIG. 10F is an example according to various embodiments, illustrating results obtained for a Leucine efflux experiment with LAT-1 inhibitor JPH-203. Briefly, the efflux procedure involved cells pre-incubated with ‘hot’ leucine (3H labeled) and washed to remove unbound radiolabeled Leucine. The cells were then incubated in the presence and absence of unlabeled Leucine (100 μM) and/or the LAT-1 inhibitor JPH-203 (30 μM). In the presence of unlabeled leucine, the cells released ‘hot’ 3H-leucine into the media which was measured via scintillation/radioactivity counts. This efflux or release from within the cell was inhibited by the presence of the LAT-1 inhibitor, JPH-203 (30 μM, FIG. 10F). Since JPH203 inhibits the import of unlabeled leucine then less unlabeled Leucine will enter the cell and less efflux of radiolabeled Leucine molecules from inside the cell will be observed. This is consistent with JPH-203 being a LAT-1 inhibitor. FIG. 10G is an example according to various embodiments, illustrating results obtained for a two minute Leucine efflux experiment with compound 10. Cells were pre-incubated with ‘hot’ leucine (^3H labeled) and washed to remove unbound radiolabeled Leucine. The cells were then incubated in the presence and absence of unlabeled “cold” Leucine (100 μM) and/or the compound 10 (20 μM). In the presence of unlabeled ‘cold’ leucine, the cells released ‘hot’ ^3H-leucine into the media which was measured via scintillation/radioactivity counting. […] The efflux experiment was repeated and the time for monitoring efflux increased to 30 minutes. […] In summary, compound 10 inhibits Leucine uptake and facilitates LAT-1 mediated efflux.
^3H-Leucine Efflux Assay ^3H-Leucine efflux experiments were performed according to the protocol developed by Hälfliger et al. (2018) (referenced below) with the following changes. Briefly, cells were preloaded with 12 μM stock of L-[^3H]leucine (79 Ci/mmol) to give a final concentration of ^3H-leucine was 1.2 μM in each well. […] The medium was then collected and mixed with scintillation fluid (Scintiverse™ BD Cocktail) and radioactivity measured (Beckman Coulter LS 6500 Multi-Purpose Scintillation Counter). […] The lysate (300 μL) was mixed with scintillation fluid and radioactivity was counted. Relative efflux was expressed as percentage radioactivity=100%×(radioactivity of medium)/(radioactivity of the medium+radioactivity of the cells). […]

T1 sequence (Q01650 whole entry): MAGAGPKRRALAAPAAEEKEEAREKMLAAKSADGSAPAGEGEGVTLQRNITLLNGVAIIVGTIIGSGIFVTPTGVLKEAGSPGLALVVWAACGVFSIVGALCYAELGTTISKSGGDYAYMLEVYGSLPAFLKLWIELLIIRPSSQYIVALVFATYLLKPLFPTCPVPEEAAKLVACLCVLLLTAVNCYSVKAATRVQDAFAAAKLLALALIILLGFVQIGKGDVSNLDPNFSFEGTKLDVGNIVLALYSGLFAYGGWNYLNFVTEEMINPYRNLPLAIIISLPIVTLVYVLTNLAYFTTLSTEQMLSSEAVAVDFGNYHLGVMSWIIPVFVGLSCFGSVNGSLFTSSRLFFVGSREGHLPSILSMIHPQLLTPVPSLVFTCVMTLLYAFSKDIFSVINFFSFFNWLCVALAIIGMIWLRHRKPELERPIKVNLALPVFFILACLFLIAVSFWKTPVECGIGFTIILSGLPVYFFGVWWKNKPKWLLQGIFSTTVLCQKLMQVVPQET
T1 sequence (P08195 102-630 partner): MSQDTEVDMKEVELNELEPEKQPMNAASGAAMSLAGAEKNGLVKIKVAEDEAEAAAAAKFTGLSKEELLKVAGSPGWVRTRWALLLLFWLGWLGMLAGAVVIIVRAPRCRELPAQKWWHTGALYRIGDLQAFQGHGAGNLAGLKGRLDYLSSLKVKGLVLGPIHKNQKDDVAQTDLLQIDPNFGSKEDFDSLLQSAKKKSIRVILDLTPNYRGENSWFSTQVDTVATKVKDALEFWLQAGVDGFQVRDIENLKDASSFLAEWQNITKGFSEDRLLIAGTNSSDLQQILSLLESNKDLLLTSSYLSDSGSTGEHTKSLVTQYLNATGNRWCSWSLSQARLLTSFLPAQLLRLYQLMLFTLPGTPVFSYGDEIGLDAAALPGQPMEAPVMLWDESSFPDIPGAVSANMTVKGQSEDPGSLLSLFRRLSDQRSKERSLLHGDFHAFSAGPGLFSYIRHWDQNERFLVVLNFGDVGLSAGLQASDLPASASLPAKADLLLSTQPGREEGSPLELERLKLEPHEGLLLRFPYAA

SMILES: CC(C)CCN1CCN(C(CNCc2ccccc2)CC2CCCCC2)CC1CC(C)C.Cl.Cl.Cl (stereo not shown) [Compound 10, Benzyl-{3-cyclohexyl-2-[3-isobutyl-4-(3-methyl-butyl)-piperazin-1-yl]-propyl}-amine trihydrochloride salt]
- Cell Count (L3.6pl cells; 2 μM): 9.40 millions
- Cell Count (L3.6pl cells; 5 μM): 4.35 millions
- loss of the attached cell population (L3.6pl cells; 5 μM): 58%
- Cell Count (L3.6pl cells; 7 μM): 2.10 millions
- loss of the attached cell population (L3.6pl cells; 7 μM): 80%
- 3H-leucine efflux, compound alone (LAT-1; 2 min, JPH-203 30 μM or compound 10 20 μM): slight increase in efflux
- efflux of radiolabeled leucine (LAT-1; 30 minutes, in presence and absence of leucine (1 μM), vs untreated control (FIG. 10H)): increased efflux

— patent US20210317090A1, “AMINO ACID DEPLETION AGENTS AS ANTIPROLIFERATIVE AGENTS” (University of Central Florida Research Foundation, Inc., priority 2018, published 2021)
